Laboratory results reported in PMC10123497 (RSC Advances, 2023).
Like-named read-outs stand apart in the source and are kept apart here.

How the values were obtained:
HepG2 = assay: MTT in vitro cytotoxicity assay; conditions: for IC50: Homo sapiens, HepG2, 24 h, read-out: In vitro cytotoxicity activity IC50 ± SD; for Selectivity index (SI): (IC50 of WI-38)/(IC50 of HepG2)
HCT-116 = assay: MTT in vitro cytotoxicity assay; conditions: for IC50: Homo sapiens, HCT-116, 24 h, read-out: In vitro cytotoxicity activity IC50 ± SD; for Selectivity index (SI): (IC50 of WI-38)/(IC50 of HCT-116)
MCF-7 = assay: MTT in vitro cytotoxicity assay; conditions: for IC50: read-out: In vitro cytotoxicity activity IC50 ± SD; for Selectivity index (SI): (IC50 of WI-38)/(IC50 of MCF-7)
[1] = MTT cytotoxicity on non-tumorigenic normal cell line; type: cell-based; conditions: human, WI-38 cells (non-tumorigenic normal lung fibroblasts)
MDA-MB-231 = assay: MTT in vitro cytotoxicity assay; type: cell-based, human; conditions: for Selectivity index (SI): (IC50 of WI-38)/(IC50 of MDA-MB-231)
EGFR^Wt = EGFR^Wt (Homo sapiens, UniProt P00533); assay: EGFR Kinase Assay Kit; type: biochemical
Chain of EGFR^Wt (P00533 25-1210): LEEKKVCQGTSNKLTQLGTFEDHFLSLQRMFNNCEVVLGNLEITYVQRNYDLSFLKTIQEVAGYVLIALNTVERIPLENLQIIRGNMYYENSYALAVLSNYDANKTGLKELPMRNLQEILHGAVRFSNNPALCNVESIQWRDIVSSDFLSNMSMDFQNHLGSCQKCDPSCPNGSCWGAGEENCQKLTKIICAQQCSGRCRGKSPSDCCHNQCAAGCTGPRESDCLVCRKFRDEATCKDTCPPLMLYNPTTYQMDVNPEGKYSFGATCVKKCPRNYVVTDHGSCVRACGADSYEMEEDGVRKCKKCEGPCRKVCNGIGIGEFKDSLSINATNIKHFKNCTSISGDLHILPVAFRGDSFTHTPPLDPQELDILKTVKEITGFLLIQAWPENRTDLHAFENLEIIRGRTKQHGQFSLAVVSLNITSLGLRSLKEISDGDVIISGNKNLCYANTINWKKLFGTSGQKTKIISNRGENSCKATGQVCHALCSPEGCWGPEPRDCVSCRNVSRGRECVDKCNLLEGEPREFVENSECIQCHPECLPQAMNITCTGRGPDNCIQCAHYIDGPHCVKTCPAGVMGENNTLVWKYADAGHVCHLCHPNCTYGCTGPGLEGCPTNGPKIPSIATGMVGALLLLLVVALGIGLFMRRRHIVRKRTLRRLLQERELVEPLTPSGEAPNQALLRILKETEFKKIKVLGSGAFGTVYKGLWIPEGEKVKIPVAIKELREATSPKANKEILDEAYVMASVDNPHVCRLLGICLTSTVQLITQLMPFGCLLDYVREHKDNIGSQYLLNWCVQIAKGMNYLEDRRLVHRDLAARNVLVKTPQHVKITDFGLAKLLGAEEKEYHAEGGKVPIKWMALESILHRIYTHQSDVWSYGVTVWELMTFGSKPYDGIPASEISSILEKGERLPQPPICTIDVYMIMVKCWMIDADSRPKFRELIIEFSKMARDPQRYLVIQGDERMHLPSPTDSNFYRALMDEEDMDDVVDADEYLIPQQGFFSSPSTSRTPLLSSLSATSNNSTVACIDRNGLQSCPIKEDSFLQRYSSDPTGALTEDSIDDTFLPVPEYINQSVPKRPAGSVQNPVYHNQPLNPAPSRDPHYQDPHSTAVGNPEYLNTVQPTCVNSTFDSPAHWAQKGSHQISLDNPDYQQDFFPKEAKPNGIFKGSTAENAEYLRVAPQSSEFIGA

MCF-7 cells [2] = assay: Annexin-V/propidium iodide apoptosis assay; type: cell-based, human
EGFR^(L858R) = EGFR^(L858R) (Homo sapiens, UniProt P00533, L858R); assay: EGFR; type: biochemical
Chain of EGFR^(L858R) (P00533 25-1210 L858R): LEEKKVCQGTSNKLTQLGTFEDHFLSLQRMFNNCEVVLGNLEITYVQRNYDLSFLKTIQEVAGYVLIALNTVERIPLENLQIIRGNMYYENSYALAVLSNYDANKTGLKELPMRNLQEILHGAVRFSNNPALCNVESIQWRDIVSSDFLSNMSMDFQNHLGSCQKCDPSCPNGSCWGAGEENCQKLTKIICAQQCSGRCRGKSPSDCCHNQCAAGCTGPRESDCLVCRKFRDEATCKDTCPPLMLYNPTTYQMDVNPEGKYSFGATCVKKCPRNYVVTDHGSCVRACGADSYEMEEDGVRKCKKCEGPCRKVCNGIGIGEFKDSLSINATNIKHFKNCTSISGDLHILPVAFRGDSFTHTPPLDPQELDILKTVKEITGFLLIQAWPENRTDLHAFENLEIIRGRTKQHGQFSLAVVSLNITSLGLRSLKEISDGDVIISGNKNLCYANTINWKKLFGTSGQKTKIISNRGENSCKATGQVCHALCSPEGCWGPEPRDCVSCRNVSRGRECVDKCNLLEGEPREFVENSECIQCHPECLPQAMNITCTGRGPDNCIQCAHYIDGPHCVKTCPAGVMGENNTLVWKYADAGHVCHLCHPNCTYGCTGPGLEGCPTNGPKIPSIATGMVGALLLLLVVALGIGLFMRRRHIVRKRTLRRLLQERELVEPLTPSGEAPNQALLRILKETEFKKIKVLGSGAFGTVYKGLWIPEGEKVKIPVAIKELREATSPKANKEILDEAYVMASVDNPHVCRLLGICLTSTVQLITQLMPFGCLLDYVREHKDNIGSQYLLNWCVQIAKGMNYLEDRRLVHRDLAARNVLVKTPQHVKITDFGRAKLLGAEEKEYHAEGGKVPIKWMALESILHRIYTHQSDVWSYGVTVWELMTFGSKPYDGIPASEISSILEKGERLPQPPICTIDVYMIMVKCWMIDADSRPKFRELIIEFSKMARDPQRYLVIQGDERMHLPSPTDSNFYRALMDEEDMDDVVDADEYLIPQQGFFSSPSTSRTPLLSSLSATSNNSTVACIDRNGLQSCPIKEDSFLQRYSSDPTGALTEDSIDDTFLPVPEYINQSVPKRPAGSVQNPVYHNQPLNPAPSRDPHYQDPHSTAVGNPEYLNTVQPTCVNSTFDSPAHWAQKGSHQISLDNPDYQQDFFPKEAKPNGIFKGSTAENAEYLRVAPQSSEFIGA

MCF-7 cells [3] = assay: Cell cycle analysis by flow cytometry; type: cell-based, human; conditions: MCF-7 treated at IC50 = 3.82 μM
p53 = assay: qRT-PCR gene expression in MCF-7; type: cell-based, human; conditions: MCF-7, vs untreated control = 1
VEGFR2 = VEGFR2 (Homo sapiens, UniProt P35968); assay: biochemical
Chain of VEGFR2 (P35968 20-1356): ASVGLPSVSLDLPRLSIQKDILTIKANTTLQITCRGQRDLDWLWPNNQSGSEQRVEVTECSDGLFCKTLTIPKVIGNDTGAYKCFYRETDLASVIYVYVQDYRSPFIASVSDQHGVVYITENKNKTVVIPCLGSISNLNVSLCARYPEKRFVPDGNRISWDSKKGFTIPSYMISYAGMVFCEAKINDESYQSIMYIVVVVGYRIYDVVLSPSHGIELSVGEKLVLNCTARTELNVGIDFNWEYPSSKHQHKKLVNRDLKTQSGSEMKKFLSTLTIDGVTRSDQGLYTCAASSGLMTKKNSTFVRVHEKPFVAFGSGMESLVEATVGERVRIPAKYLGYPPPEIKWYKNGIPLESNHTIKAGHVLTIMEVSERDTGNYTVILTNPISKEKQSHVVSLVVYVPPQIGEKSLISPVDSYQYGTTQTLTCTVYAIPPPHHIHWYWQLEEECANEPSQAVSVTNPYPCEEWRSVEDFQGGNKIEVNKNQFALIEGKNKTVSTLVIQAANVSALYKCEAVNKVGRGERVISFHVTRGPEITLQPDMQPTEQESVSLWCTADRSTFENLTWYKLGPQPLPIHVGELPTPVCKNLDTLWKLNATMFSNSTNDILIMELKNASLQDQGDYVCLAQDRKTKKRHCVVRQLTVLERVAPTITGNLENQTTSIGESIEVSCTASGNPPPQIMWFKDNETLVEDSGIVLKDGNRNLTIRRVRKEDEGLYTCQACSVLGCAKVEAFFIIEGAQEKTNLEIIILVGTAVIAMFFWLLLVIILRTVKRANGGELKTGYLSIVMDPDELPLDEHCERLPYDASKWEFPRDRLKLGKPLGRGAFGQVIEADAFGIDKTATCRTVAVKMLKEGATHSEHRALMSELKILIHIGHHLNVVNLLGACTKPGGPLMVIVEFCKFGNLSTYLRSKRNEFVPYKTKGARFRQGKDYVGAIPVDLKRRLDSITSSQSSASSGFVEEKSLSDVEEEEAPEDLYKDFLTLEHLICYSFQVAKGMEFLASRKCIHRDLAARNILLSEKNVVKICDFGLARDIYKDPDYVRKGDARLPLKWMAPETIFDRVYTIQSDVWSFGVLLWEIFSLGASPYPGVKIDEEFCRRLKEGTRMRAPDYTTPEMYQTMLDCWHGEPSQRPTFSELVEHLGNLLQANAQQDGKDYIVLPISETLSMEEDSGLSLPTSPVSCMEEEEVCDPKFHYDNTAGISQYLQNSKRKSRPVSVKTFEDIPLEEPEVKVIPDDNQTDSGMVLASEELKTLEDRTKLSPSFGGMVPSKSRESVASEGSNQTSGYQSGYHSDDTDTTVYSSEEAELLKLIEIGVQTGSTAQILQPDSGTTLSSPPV

SMILES: CCOC(=O)C(C#N)=C1Sc2nc3ccc(S(=O)(=O)N4CCCC4)cc3nc2S1 [Compound 10b, Ethyl 2-cyano-2-(6-(pyrrolidin-1-ylsulfonyl)-[1,3]dithiolo[4,5-b]quinoxalin-2-ylidene)acetate]
- IC50 (HepG2): 80.3 ± 4.1 µM
- IC50 (HCT-116): 87.4 ± 4.2 µM

SMILES: COc1cccc2c1C(=O)c1c(O)c3c(c(O)c1C2=O)C[C@@](O)(C(=O)CO)C[C@@H]3O[C@H]1C[C@H](N)[C@H](O)[C@H](C)O1 [Doxorubicin, doxorubicin, reference compound]
- IC50 (HepG2): 4.5 ± 0.2 µM

SMILES: O=C1NC(=O)C(=C2Sc3nc4ccc(S(=O)(=O)N5CCCC5)cc4nc3S2)C(=O)N1 [Compound 18, 5-(6-(Pyrrolidin-1-ylsulfonyl)-[1,3]dithiolo[4,5-b]quinoxalin-2-ylidene)pyrimidine-2,4,6(1H,3H,5H)-trione]
- IC50 (HepG2): 83.4 ± 4.3 µM
- IC50 (MCF-7; Homo sapiens, MCF7, 24 h): 62.8 ± 3.4 µM
- IC50 (HCT-116): > 100 µM

SMILES: CCOC(=O)C(C(C)=O)=C1Sc2nc3ccc(S(=O)(=O)N4CCCC4)cc3nc2S1 [Compound 10f, Ethyl 3-oxo-2-(6-(pyrrolidin-1-ylsulfonyl)-[1,3]dithiolo[4,5-b]quinoxalin-2-ylidene)butanoate]
- Selectivity index (SI) (HepG2): 1.76
- IC50 (HepG2): 26.8 ± 1.9 µM
- IC50 at 24 h [1]: 46.2 ± 2.4 µM
- Selectivity index (SI) (MDA-MB-231): 4.41
- Selectivity index (SI) (MCF-7): 5.27
- IC50 (MCF-7; MCF-7, MTT, 24 h): 8.78 ± 0.6 µM
- Selectivity index (SI) (HCT-116): 3.69
- IC50 (HCT-116): 12.5 ± 1 µM

SMILES: CC1=NN(c2ccccc2)C(=O)C1=C1Sc2nc3ccc(S(=O)(=O)N4CCCC4)cc3nc2S1 [Compound 16, 5-Methyl-2-phenyl-4-(6-(pyrrolidin-1-ylsulfonyl)-[1,3]dithiolo[4,5-b]quinoxalin-2-ylidene)-2,4-dihydro-3H-pyrazol-3-one]
- IC50 (HepG2): > 100 µM
- IC50 (HCT-116): > 100 µM

SMILES: O=C1CCCCC1=C1Sc2nc3ccc(S(=O)(=O)N4CCCC4)cc3nc2S1 [Compound 12, 2-(6-(Pyrrolidin-1-ylsulfonyl)-[1,3]dithiolo[4,5-b]quinoxalin-2-ylidene)cyclohexan-1-one]
- IC50 (EGFR^Wt; Enzyme inhibitory activity IC50 EGFR^Wt): 0.19 ± 0.009 µM
- inhibition at 10 µM (EGFR^Wt; read-out: Inhibitory% EGFR^Wt): 85.4%
- Increase in early apoptosis compared to the control (MCF-7 cells [2]; MCF-7): 54.59 folds
- Increase in late apoptosis compared to the control (MCF-7 cells [2]; MCF-7): 79.33 folds
- Apoptosis Late (MCF-7 cells [2]; MCF-7, at IC50 for 24 h, control 0.15): 11.9%
- Apoptosis Early (MCF-7 cells [2]; MCF-7, at IC50 for 24 h, control 0.44): 24.02%
- Necrosis (MCF-7 cells [2]; MCF-7, at IC50 for 24 h, control 1.25): 6.16%
- Apoptosis Total (MCF-7 cells [2]; MCF-7, at IC50 for 24 h, control 1.84): 42.08%
- IC50 (EGFR^(L858R); Enzyme inhibitory activity IC50 EGFR^(L858R)): 0.121 ± 0.007 µM
- inhibition at 10 µM (EGFR^(L858R); read-out: Inhibitory% EGFR^(L858R)): 87%
- Selectivity index (SI) (HepG2): 9.89
- IC50 (HepG2): 8.25 ± 0.6 µM
- Cell cycle distribution %G2/M (MCF-7 cells [3]; untreated control 12.55): 7.32%
- Cell cycle distribution %G0-G1 (MCF-7 cells [3]; untreated control 57.66): 48.16%
- IC50 at 24 h [1]: 81.6 ± 4.1 µM
- RT-PCR results fold change p53 (pro-apoptotic) (p53): 4.97 fold
- IC50 (VEGFR2; Enzyme inhibitory activity IC50 VEGFR2): 0.42 ± 0.021 µM
- inhibition at 10 µM (VEGFR2; read-out: Inhibitory% VEGFR2): 78.9%
- Selectivity index (SI) (MDA-MB-231): 36.12
- Fold increase of potency as compared with doxorubicin (MDA-MB-231; MDA-MB-231): 1.41 fold
- Selectivity index (SI) (MCF-7): 21.37
- IC50 (MCF-7; Homo sapiens, MCF7, 24 h): 3.82 ± 0.2 µM
- Fold increase of potency as compared with doxorubicin (MCF-7; MCF-7): 1.09 fold
- Selectivity index (SI) (HCT-116): 10.26
- IC50 (HCT-116): 7.95 ± 0.5 µM

SMILES: CC1=NNC(=O)C1=C1Sc2nc3ccc(S(=O)(=O)N4CCCC4)cc3nc2S1 [Compound 14, 5-Methyl-4-(6-(pyrrolidin-1-ylsulfonyl)-[1,3]dithiolo[4,5-b]quinoxalin-2-ylidene)-2,4-dihydro-3H-pyrazol-3-one]
- IC50 (HepG2): 69 ± 3.9 µM
- IC50 (HCT-116): 71.2 ± 3.8 µM

SMILES: N#CC(C(=O)Nc1cccc(C(F)(F)F)c1)=C1Sc2nc3ccc(S(=O)(=O)N4CCCC4)cc3nc2S1 [Compound 10c, 2-Cyano-2-(6-(pyrrolidin-1-ylsulfonyl)-[1,3]dithiolo[4,5-b]quinoxalin-2-ylidene)-N-(3-(trifluoromethyl)phenyl)acetamide]
- Selectivity index (SI) (HepG2): 3.82
- IC50 (HepG2): 17 ± 1.3 µM
- IC50 at 24 h [1]: 65.1 ± 3.5 µM
- Selectivity index (SI) (MDA-MB-231): 8.48
- Selectivity index (SI) (MCF-7): 10.61
- IC50 (MCF-7; MCF-7, MTT, 24 h): 6.13 ± 0.4 µM
- Selectivity index (SI) (HCT-116): 7.01
- IC50 (HCT-116): 9.26 ± 0.8 µM

SMILES: N#CC(C(=O)NN=C1C(=O)Nc2ccccc21)=C1Sc2nc3ccc(S(=O)(=O)N4CCCC4)cc3nc2S1 [Compound 10e, 2-Cyano-N′-(2-oxoindolin-3-ylidene)-2-(6-(pyrrolidin-1-ylsulfonyl)-[1,3]dithiolo[4,5-b]quinoxalin-2-ylidene)acetohydrazide]
- IC50 (HepG2): 41.9 ± 2.5 µM
- IC50 (HCT-116): 22 ± 1.7 µM

SMILES: N#CC(C#N)=C1Sc2nc3ccc(S(=O)(=O)N4CCCC4)cc3nc2S1 [Compound 10a, 2-(6-(Pyrrolidin-1-ylsulfonyl)-[1,3]dithiolo[4,5-b]quinoxalin-2-ylidene)malononitrile]
- IC50 (HepG2): 89.7 ± 4.5 µM
- IC50 (HCT-116): 93.8 ± 4.7 µM

SMILES: O=S(=O)(c1ccc2nc(Cl)c(Cl)nc2c1)N1CCCC1 [Compound 7, 2,3-Dichloro-6-(pyrrolidin-1-ylsulfonyl)quinoxaline]
- IC50 (HepG2): 48.7 ± 2.8 µM
- IC50 (HCT-116): 38.1 ± 2.2 µM

SMILES: COc1ccc(C=NNC(=O)C(C#N)=C2Sc3nc4ccc(S(=O)(=O)N5CCCC5)cc4nc3S2)cc1 [Compound 10d, 2-Cyano-N′-(4-methoxybenzylidene)-2-(6-(pyrrolidin-1-ylsulfonyl)-[1,3]dithiolo[4,5-b]quinoxalin-2-ylidene)acetohydrazide]
- IC50 (HepG2): 32.1 ± 2.2 µM
- IC50 (HCT-116): 18.4 ± 1.4 µM
